Paper PMC7010785, “Nandrolone induces a stem cell-like phenotype in human hepatocarcinoma-derived cell line inhibiting mitochondrial respiratory activity” (Scientific Reports, 2020)

Biological target: T1, mitochondrial respiratory chain complex III (CxIII, coenzyme Q-cytochrome c oxidoreductase) (Bos taurus, UniProt P00157+P13272)
T1 construct: gene MT-CYB; native complex in mitochondria isolated from bovine heart
Experiment: spectrophotometric initial rates of cytochrome c reduction with graded decylubiquinol in isolated mitochondria; reciprocal and Dixon plots
Assay type: biochemical
Text: spectrophotometric initial rates of cytochrome c reduction with graded decylubiquinol in isolated mitochondria; reciprocal and Dixon plots on mitochondrial respiratory chain complex III (CxIII, coenzyme Q-cytochrome c oxidoreductase) | indicate a competitive modality of inhibition.

For `C[C@]12CC[C@H]3[C@@H](CCC4=CC(=O)CC[C@@H]43)[C@@H]1CC[C@@H]2O` [ND, nandrolone], which Ki is on record?
Its Ki is roughly 300 µM.
